According to patent US12465614B2, “Budesonide 21-phosphate salts and pharmaceutical compositions containing the same” (GENETIC S.P.A., priority 2020, dated 2025):

Legend:
Type in all cases: in vivo
[1] = system: mice with OVA-induced allergic asthma; assay: Lung hyperreactivity/Penh function, intra-nasal Bud vs Bud-21 P (Experimental Groups III); details: for Penh maximal response (Emax) / area under the Penh-metacholine concentration curve (AUC): 4 weeks
Protocol: Male Balb/c SPF mice (25*2 g, 6-week-old) were purchased from the animal house facilities at the São Paulo School of Medicine (Federal University of São Paulo, Brazil). They were group-housed in a temperature-controlled room at 22° C. with a 12/12-hour light/dark cycle and allowed free access to food and water. The study is in agreement with the Ethical Principles for Animal Research established by the Brazilian College for Animal Experimentation (COBEA). According to the internal laboratory rules, euthanasia is performed if severe distress related to the test agents developed during the experiment. In Protocol 3, the test compounds budesonide (Bud; MW: 430.53 g/mol) and budesonide 21-phosphate free acid (Bud-21 P; […] The compounds were dissolved in 10% sterile saline+90% DMSO (Sigma Chemical Co., St. Louis, MO) at the correspondent concentrations at which the above mentioned doses per animal result from the intra-nasal (i.n.) administration of 10 μl/animal (5 μl/nostril) of each of the solutions. Mice were sensitized with two subcutaneous injections of 0.4 ml of OVA/Al(OH)3, with an interval of 7 days (Sham animals received the Al(OH)3 suspension in PBS with no OVA). Seven days after the second sensitization (i.e., 3rd week), the animals were nebulized twice a week with the 1% OVA solution (Sham and untreated OVA groups were nebulized with PBS) during 20 minutes for the next 2 weeks. Sixty minutes before the challenges (OVA nebulization) and daily during the next 4 weeks, mice were intra-nasally treated (10 μl/animal as 5 μl/nostril) with the respective compounds/vehicle. Airway responsiveness in conscious, spontaneously breathing animals was measured at the end of the 4th week (i.e., after 2 weeks of OVA challenges+treatments), 24 h after the last OVA/PBS challenge via whole body plethysmography (Buxco Europe Ltd, Winchester, UK), as previously described. Experiments were carried out in a quiet room by an investigator who was unaware of the nature of treatments. Aerosolized saline (50 μl/mouse during 60 s) and then the muscarinic agonist metacholine (MCh) at increasing concentrations (3.12, 6.25, 12.5 and 25.0 mg/ml in PBS) was nebulized through an inlet of the main chamber for 3 min each to induce bronchoconstriction and readings were taken and averaged for 6 min following each nebulization. After 20 min, the baseline values usually returned at the end of this period. Enhanced pause (Penh) was measured as an indicator of bronchoconstriction and consequent increase of airway resistances: Penh=[(expiration time/relaxation time)−1][…](maximum expiration flow/maximum inspiration flow)

[2] = system: mice with OVA-induced allergic asthma; assay: Lung hyperreactivity/Penh function, whole body plethysmography, intra-nasal FB, F, B (Experimental Groups II); details: i.n. daily 2 weeks, all tested doses: FB 0.3, 1.0, 3.0 nmol/animal, vs untreated OVA group
[3] = system: mice with OVA-induced allergic asthma; assay: BAL fluid cell counts (Experimental Groups II)
Protocol: Male Balb/c SPF mice (25*2 g, 6-week-old) were purchased from the animal house facilities at the São Paulo School of Medicine (Federal University of São Paulo, Brazil). They were group-housed in a temperature-controlled room at 22° C. with a 12/12-hour light/dark cycle and allowed free access to food and water. The study is in agreement with the Ethical Principles for Animal Research established by the Brazilian College for Animal Experimentation (COBEA). According to the internal laboratory rules, euthanasia is performed if severe distress related to the test agents developed during the experiment. […] The compounds were dissolved in DMSO (Sigma Chemical Co., St. Louis, MO) at concentrations at which the determined dose per animal results from the intraperitoneal administration of 100 μl of solution (1:10 DMSO) and intra-nasal (i.n.) administration of 10 μl/animal (5 μl/nostril) of the solutions. Mice were sensitized with two subcutaneous injections of 0.4 ml of OVA/Al(OH)3, with an interval of 7 days (Sham animals received the Al(OH)3 suspension in PBS with no OVA). Seven days after the second sensitization (i.e., 3rd week), the animals were nebulized twice a week with the 1% OVA solution (Sham and untreated OVA groups were nebulized with PBS) during 20 minutes for the next 2 weeks. Sixty minutes before the challenges (OVA nebulization) and daily during the next 4 weeks, mice were intra-nasally treated (10 μl/animal as 5 μl/nostril) with the respective compounds/vehicle. After Penh evaluation, the mice were anesthetized with inhaled isofluorane (5% v/v in O2) and blood samples were collected from the descending abdominal aorta. The mice were then euthanized by exsanguination (blood samples were collected from each animal for leukocyte cell counting), and bronchoalveolar lavage (BAL) was performed by exposing and cannulating the trachea with a polyethylene tube (1 mm outer diameter) connected to a syringe. The lungs were washed by flushing 300 μL of heparin-containing PBS solution (20 Ul/mL). The retrieved BAL lavage aliquots were obtained, and the same procedure was repeated four additional times. The samples were submitted to centrifugation (1000 g for 10 min) and the cell pellet was resuspended in 200 μL of PBS solution. Total cell counts were determined using a Neubauer chamber, and differential counting was carried out in cytospin (Fanem Mod 2400; São Paulo, Brazil) preparations stained with May-Grünwald dye. Leukocytes were classified based on normal morphological criteria.

[4] = highest dose 30 nmol/animal/day i.n.
[5] = all tested doses (3, 10 and 30 nmol/animal/day) i.n.

SMILES: CCCC1OC2CC3C4CCC5=CC(=O)C=CC5(C)C4C(O)CC3(C)C2(C(=O)CO)O1 (stereo not drawn) [Bud, 11β,21-dihydroxy-16α,17α-(butylidenebis(oxy))pregna-1,4-diene-3.20-dione]
- beneficial effect on bronchoconstriction response to methacholine (Penh function) ([1]; 3 and 10 nmol/animal/day i.n.): absent
- Penh maximal response (Emax) [1, 4]: significant reduction of this response just at the highest dose
- area under the Penh-metacholine concentration curve (AUC) [1, 4]: significant reduction of this response just at the highest dose

SMILES: CCCC1OC2CC3C4CCC5=CC(=O)C=CC5(C)C4C(O)CC3(C)C2(C(=O)COP(=O)(O)O)O1 (stereo not shown) [B, Budesonide 21-phosphate]
- area under the Penh-metacholine concentration curve (AUC) ([2]; B 3.0 nmol/animal): showed no effect
- Penh maximal response Emax to inhaled metacholine ([2]; F and B 3.0 nmol/animal): showed no effect
- OVA-induced increase of BAL macrophages ([3]; 3 nmol/animal i.n.): abolished the OVA-induced increase of BAL macrophages
- total leukocytes in BAL fluid ([3]; 3 nmol/animal i.n., vs untreated OVA group): significantly reduced
- eosinophils in BAL samples ([3]; i.n., all treatments: FB 0.3, 1.0, 3.0 nmol/animal, F and B 3.0 nmol/animal): significantly controlled
- Penh maximal response (Emax) [1, 5]: significantly reduced
- area under the Penh-metacholine concentration curve (AUC) [1, 5]: significantly reduced
